# Measurements taken from article PMC10746543, “Design principles for cyclin K molecular glue degraders” (Nature Chemical Biology, 2023).
# Where “and” joins values, the source holds several entries; their conditions need not be identical. Equal entries are not always repeated. Where two headings read alike, the source gives them in different places.
# Tests used:
# HEK293T cells = experiment: Drug sensitivity assay (CellTiter-Glo viability) with or without MLN4924 pretreatment; type: cell-based, human; conditions: Supplementary Table 2
# Method in brief: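 Viability of HEK293T–Cas9 cells was compared after 3-day drug treatment with or without 100 nM MLN4924 pretreatment (2 h, versus DMSO). Values are CellTiter-Glo signals relative to DMSO controls.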
# CDK9–cyclin T = molecular target: T1, CDK9–cyclin T (Homo sapiens, UniProt P50750); experiment: Lanthascreen kinase binding assay, CDK9; conditions: Supplementary Table 2; read-out: Lanthascreen IC50 [nM] CDK9
# T1 construct: purchased Thermo Fisher
# Protocol: (§1) Lanthascreen experiments were performed using commercially available reagents (Thermo Fisher) and according to the manufacturer’s instructions.
# CDK2–cyclin A = molecular target: T2, CDK2–cyclin A (Homo sapiens, UniProt P24941); experiment: Lanthascreen kinase binding assay, CDK2
# T2 construct: purchased Thermo Fisher
# Protocol: as §1
# cyclin K = experiment: Label-free quantitative mass spectrometry in MDA-MB-231 cells, cyclin K; type: cell-based, human
# Method in brief: (§2)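 MDA-MB-231 cells treated 5 h with 1 µM cyclin K degrader or DMSO. Lysates digested with LysC and trypsin, then analysed by label-free diaPASEF LC-MS on a TimsTOF Pro2 with directDIA search and MS1 precursor quantification. Protein abundances scaled and analysed with limma.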
# CDK13 = molecular target: T3, CDK13 (Homo sapiens, UniProt Q14004+Q16531); experiment: Label-free quantitative mass spectrometry in MDA-MB-231 cells, CDK13; type: cell-based
# T3 construct: endogenous in cells; host or cells: MDA-MB-231
# Method in brief: as §2
# [1] = label-free quantitative MS, replicate values
# [2] = normalised to DMSO = 1, replicate values
# T3 sequence (Q14004 whole entry): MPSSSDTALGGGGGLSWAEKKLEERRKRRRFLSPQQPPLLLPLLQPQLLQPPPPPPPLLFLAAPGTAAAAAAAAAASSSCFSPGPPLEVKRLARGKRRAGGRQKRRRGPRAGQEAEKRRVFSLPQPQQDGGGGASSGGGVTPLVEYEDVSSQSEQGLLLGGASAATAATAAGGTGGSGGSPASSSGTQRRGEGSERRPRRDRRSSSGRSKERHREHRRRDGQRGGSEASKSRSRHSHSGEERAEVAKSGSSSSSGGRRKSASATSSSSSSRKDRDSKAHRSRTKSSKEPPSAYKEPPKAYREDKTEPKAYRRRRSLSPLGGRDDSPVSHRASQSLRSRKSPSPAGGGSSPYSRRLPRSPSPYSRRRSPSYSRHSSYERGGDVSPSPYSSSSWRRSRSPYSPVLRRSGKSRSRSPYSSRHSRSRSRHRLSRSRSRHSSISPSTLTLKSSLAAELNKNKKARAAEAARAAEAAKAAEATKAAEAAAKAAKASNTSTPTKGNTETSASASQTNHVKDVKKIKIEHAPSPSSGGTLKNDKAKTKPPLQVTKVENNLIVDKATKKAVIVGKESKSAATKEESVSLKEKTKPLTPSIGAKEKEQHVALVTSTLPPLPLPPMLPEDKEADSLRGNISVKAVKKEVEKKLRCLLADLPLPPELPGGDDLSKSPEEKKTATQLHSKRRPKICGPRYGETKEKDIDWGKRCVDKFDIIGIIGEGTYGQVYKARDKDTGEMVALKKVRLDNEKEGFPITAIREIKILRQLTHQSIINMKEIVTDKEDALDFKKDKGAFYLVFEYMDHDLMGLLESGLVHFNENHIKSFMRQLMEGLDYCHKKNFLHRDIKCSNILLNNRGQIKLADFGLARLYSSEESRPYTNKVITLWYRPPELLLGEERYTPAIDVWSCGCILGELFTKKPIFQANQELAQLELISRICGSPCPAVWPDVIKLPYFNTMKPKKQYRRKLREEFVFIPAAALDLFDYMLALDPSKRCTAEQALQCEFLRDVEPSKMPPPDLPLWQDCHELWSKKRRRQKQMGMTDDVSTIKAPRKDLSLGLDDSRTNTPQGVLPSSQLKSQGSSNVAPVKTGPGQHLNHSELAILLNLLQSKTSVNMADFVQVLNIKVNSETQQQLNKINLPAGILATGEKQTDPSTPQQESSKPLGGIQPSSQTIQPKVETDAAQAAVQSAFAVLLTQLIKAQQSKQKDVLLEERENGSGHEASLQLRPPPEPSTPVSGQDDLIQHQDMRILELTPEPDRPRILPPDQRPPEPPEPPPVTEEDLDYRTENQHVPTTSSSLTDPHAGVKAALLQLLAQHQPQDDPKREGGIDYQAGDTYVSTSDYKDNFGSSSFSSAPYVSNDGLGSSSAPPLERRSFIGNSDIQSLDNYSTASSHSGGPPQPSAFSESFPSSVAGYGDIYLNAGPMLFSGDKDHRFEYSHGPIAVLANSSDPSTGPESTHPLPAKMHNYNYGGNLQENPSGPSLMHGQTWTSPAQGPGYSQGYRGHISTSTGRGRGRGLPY
# T3 sequence (O75909 whole entry partner): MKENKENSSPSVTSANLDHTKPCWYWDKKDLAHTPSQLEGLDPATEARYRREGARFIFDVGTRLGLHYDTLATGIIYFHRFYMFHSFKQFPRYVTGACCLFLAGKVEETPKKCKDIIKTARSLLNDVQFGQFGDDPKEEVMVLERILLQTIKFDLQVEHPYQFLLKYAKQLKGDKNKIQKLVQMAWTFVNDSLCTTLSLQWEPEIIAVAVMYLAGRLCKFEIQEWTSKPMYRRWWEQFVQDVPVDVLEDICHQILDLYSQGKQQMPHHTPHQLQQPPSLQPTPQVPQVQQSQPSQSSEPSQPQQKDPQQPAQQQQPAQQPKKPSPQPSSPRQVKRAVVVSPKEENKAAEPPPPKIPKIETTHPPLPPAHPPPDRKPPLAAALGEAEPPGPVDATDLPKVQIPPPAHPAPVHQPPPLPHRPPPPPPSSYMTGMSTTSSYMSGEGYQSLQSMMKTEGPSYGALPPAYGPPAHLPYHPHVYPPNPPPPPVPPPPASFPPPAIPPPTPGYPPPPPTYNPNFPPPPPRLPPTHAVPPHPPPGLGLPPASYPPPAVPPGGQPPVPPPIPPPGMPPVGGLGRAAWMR
# T3 sequence (Q16531 2-1140 limits assumed): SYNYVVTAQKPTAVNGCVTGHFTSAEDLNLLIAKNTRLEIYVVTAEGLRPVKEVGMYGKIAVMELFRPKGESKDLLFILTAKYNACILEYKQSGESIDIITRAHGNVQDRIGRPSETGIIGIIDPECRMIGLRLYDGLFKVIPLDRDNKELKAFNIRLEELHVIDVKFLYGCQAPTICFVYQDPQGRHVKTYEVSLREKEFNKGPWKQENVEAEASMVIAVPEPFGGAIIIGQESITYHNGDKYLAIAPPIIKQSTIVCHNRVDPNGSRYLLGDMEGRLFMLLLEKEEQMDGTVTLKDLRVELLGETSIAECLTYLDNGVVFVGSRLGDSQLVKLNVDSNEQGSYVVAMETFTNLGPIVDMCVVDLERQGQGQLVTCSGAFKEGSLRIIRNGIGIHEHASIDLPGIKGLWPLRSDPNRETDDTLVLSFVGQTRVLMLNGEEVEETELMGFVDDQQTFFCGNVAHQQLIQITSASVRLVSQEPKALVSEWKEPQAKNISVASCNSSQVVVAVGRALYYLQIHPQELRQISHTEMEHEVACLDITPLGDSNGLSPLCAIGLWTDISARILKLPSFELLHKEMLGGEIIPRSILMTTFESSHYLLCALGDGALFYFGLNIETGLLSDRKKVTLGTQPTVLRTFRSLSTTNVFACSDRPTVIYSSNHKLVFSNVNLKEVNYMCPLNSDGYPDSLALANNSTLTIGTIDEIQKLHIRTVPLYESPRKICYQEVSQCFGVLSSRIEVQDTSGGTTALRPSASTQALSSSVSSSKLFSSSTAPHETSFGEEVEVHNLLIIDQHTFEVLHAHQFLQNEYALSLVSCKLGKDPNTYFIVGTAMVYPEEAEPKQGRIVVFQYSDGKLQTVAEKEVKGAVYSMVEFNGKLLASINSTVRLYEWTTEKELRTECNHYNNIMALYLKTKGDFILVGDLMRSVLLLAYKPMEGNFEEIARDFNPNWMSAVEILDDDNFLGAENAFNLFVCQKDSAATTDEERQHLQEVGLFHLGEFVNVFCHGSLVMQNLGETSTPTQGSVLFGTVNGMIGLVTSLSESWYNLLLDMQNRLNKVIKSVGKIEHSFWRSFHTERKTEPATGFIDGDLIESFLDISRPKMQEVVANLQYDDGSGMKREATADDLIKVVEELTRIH
# T1 sequence (P50750 whole entry): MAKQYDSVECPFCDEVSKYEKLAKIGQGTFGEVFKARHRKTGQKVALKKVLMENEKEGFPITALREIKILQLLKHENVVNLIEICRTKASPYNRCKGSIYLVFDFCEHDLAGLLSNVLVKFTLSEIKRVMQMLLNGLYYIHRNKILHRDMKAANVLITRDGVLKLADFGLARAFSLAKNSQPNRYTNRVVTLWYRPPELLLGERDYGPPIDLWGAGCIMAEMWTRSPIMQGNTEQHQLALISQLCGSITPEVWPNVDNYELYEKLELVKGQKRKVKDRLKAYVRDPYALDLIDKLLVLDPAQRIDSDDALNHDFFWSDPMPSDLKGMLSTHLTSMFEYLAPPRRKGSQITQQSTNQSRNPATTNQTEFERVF
# T1 sequence (O60563 whole entry partner): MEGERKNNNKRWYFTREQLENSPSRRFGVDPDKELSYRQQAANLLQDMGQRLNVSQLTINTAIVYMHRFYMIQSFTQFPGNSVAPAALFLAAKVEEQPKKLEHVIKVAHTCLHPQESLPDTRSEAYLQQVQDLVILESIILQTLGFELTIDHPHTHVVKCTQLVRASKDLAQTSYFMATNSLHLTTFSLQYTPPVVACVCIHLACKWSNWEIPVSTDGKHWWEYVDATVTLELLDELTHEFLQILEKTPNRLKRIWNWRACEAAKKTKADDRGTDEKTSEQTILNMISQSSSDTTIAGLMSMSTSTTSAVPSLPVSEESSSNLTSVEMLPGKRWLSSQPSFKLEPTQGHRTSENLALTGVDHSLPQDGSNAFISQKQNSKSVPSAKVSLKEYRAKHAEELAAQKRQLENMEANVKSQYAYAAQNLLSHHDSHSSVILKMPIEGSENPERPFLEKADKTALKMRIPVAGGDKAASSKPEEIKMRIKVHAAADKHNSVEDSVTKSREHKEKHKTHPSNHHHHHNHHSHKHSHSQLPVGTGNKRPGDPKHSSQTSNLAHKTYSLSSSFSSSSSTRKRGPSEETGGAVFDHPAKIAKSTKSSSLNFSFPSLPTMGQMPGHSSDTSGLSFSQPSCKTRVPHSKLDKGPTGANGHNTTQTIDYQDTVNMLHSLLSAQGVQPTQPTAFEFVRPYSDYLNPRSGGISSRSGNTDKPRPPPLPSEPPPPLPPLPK
smiles,measurement,setting,value
Cn1cc(-n2cnc3c(NCc4nc5cc(Cl)c(Cl)cc5[nH]4)nc(N4CCOCC4)nc32)cn1 [SR-4835],EC50,"HEK293T cells; Homo sapiens, HEK-293T, HEK293T viability, 72 h, compound alone, read-out: Cellular assays EC50",0.042 µM
same,Toxicity rescue,"HEK293T cells; MLN4924-mediated cytotoxicity rescue, 10 µM used where n.d.",645%
same,IC50,CDK9–cyclin T,3660 nM
same,"Lanthascreen signal, sheet CDK2","CDK2–cyclin A; Compound 0.038147 nM, raw replicates, experiment r13-r23",0.0127 and 0.01284
same,"Lanthascreen signal, sheet CDK2","CDK2–cyclin A; Compound 0.038147 nM, raw replicates, experiment r36-r46",0.01329 and 0.01256
same,"Lanthascreen signal, sheet CDK2","CDK2–cyclin A; Compound 0.038147 nM, raw replicates, experiment r48-r58",0.01292 and 0.01236
same,"Lanthascreen signal, sheet CDK2","CDK2–cyclin A; Compound 0.152588 nM, raw replicates, experiment r13-r23",0.01305 and 0.01264
same,"Lanthascreen signal, sheet CDK2","CDK2–cyclin A; Compound 0.152588 nM, raw replicates, experiment r36-r46",0.01299 and 0.01282
same,"Lanthascreen signal, sheet CDK2","CDK2–cyclin A; Compound 0.152588 nM, raw replicates, experiment r48-r58",0.01645 and 0.0151
same,"Lanthascreen signal, sheet CDK2","CDK2–cyclin A; Compound 0.610352 nM, raw replicates, experiment r13-r23",0.01296 and 0.01232
same,"Lanthascreen signal, sheet CDK2","CDK2–cyclin A; Compound 0.610352 nM, raw replicates, experiment r36-r46",0.01373 and 0.01242
same,"Lanthascreen signal, sheet CDK2","CDK2–cyclin A; Compound 0.610352 nM, raw replicates, experiment r48-r58",0.01563 and 0.01504
same,"Lanthascreen signal, sheet CDK2","CDK2–cyclin A; Compound 1.02544 nM, raw replicates, experiment r1-r11",0.01131 and 0.01009
same,"Lanthascreen signal, sheet CDK2","CDK2–cyclin A; Compound 3.15521 nM, raw replicates, experiment r1-r11",0.009228 and 0.009357
same,"Lanthascreen signal, sheet CDK2","CDK2–cyclin A; Compound 4.57247 nM, experiment r25-r34",0.01614
same,"Lanthascreen signal, sheet CDK2","CDK2–cyclin A; Compound 9.76563 nM, raw replicates, experiment r13-r23",0.01326 and 0.01312
same,"Lanthascreen signal, sheet CDK2","CDK2–cyclin A; Compound 9.76563 nM, raw replicates, experiment r36-r46",0.01252 and 0.01318
same,"Lanthascreen signal, sheet CDK2","CDK2–cyclin A; Compound 9.76563 nM, raw replicates, experiment r48-r58",0.01463 and 0.01476
same,"Lanthascreen signal, sheet CDK2","CDK2–cyclin A; Compound 9.76563 nM, raw replicates, experiment r60-r70",0.02088 and 0.02079 and 0.02078
same,"Lanthascreen signal, sheet CDK2","CDK2–cyclin A; Compound 13.7174 nM, experiment r25-r34",0.01619
same,"Lanthascreen signal, sheet CDK2","CDK2–cyclin A; Compound 39.0625 nM, raw replicates, experiment r13-r23",0.01273 and 0.01299
same,"Lanthascreen signal, sheet CDK2","CDK2–cyclin A; Compound 39.0625 nM, raw replicates, experiment r36-r46",0.01285 and 0.01213
same,"Lanthascreen signal, sheet CDK2","CDK2–cyclin A; Compound 39.0625 nM, raw replicates, experiment r48-r58",0.01551 and 0.01552
same,"Lanthascreen signal, sheet CDK2","CDK2–cyclin A; Compound 39.0625 nM, raw replicates, experiment r60-r70",0.01951 and 0.02081 and 0.02075
same,"Lanthascreen signal, sheet CDK2","CDK2–cyclin A; Compound 41.1523 nM, experiment r25-r34",0.01684
same,"Lanthascreen signal, sheet CDK2","CDK2–cyclin A; Compound 123.457 nM, experiment r25-r34",0.01665
same,"Lanthascreen signal, sheet CDK2","CDK2–cyclin A; Compound 156.25 nM, raw replicates, experiment r13-r23",0.01317 and 0.01374
same,"Lanthascreen signal, sheet CDK2","CDK2–cyclin A; Compound 156.25 nM, raw replicates, experiment r36-r46",0.01372 and 0.0133
same,"Lanthascreen signal, sheet CDK2","CDK2–cyclin A; Compound 156.25 nM, raw replicates, experiment r48-r58",0.01549 and 0.01505
same,"Lanthascreen signal, sheet CDK2","CDK2–cyclin A; Compound 156.25 nM, raw replicates, experiment r60-r70",0.01961 and 0.02092 and 0.0201
same,"Lanthascreen signal, sheet CDK2","CDK2–cyclin A; Compound 370.37 nM, experiment r25-r34",0.01637
same,"Lanthascreen signal, sheet CDK2","CDK2–cyclin A; Compound 625 nM, raw replicates, experiment r13-r23",0.0132 and 0.01347
same,"Lanthascreen signal, sheet CDK2","CDK2–cyclin A; Compound 625 nM, raw replicates, experiment r36-r46",0.01352 and 0.01293
same,"Lanthascreen signal, sheet CDK2","CDK2–cyclin A; Compound 625 nM, raw replicates, experiment r48-r58",0.01526 and 0.01348
same,"Lanthascreen signal, sheet CDK2","CDK2–cyclin A; Compound 625 nM, raw replicates, experiment r60-r70",0.01884 and 0.01787 and 0.01937
same,"Lanthascreen signal, sheet CDK2","CDK2–cyclin A; Compound 2500 nM, raw replicates, experiment r13-r23",0.01229 and 0.01217
same,"Lanthascreen signal, sheet CDK2","CDK2–cyclin A; Compound 2500 nM, raw replicates, experiment r36-r46",0.01331 and 0.01286
same,"Lanthascreen signal, sheet CDK2","CDK2–cyclin A; Compound 2500 nM, raw replicates, experiment r48-r58",0.01476 and 0.01465
same,"Lanthascreen signal, sheet CDK2","CDK2–cyclin A; Compound 2500 nM, raw replicates, experiment r60-r70",0.01706 and 0.01739 and 0.01756
same,"Lanthascreen signal, sheet CDK2","CDK2–cyclin A; Compound 3155.21 nM, raw replicates, experiment r1-r11",0.009677 and 0.009716
same,"Lanthascreen signal, sheet CDK2","CDK2–cyclin A; Compound 3333.33 nM, experiment r25-r34",0.01493
same,"Lanthascreen signal, sheet CDK2","CDK2–cyclin A; Compound 10000 nM, experiment r25-r34",0.01253
same,"Lanthascreen signal, sheet CDK2","CDK2–cyclin A; Compound 10000 nM, raw replicates, experiment r13-r23",0.01083 and 0.01088
same,"Lanthascreen signal, sheet CDK2","CDK2–cyclin A; Compound 10000 nM, raw replicates, experiment r36-r46",0.01118 and 0.01139
same,"Lanthascreen signal, sheet CDK2","CDK2–cyclin A; Compound 10000 nM, raw replicates, experiment r48-r58",0.01493 and 0.01454
same,"Lanthascreen signal, sheet CDK2","CDK2–cyclin A; Compound 10000 nM, raw replicates, experiment r60-r70",0.01597 and 0.01433 and 0.01526
same,"Lanthascreen signal, sheet CDK2","CDK2–cyclin A; Compound 10002 nM, raw replicates, experiment r1-r11",0.009692 and 0.009444
same,IC50,"CDK2–cyclin A; Lanthascreen, average, Extended Data Fig. 8, read-out: CDK2 IC50",> 10000 nM
same,IC50,"CDK2–cyclin A; Supplementary Table 2, read-out: Lanthascreen IC50 [nM] CDK2",> 10000 nM
same,"cyclin K depletion, result in words","cyclin K; MDA-MB-231 cells, 1 µM, 5 h",more effective at depleting cyclin K than CR8
same,cyclin K abundance (label-free MS),"cyclin K; individual replicates, sheet EDF7",69.2958 and 61.7731
same,cyclin K abundance (label-free MS),cyclin K; [1],69.2958 and 61.7731
same,CCNK peptide count (DMSO-normalised),cyclin K; [2],0.03786 and 0.03436
same,average CCNK peptide count,cyclin K; sheet EDF7,65.5345
same,CDK13 peptide count,CDK13; [1],281.229 and 215.265
same,CDK13 peptide count (DMSO-normalised),CDK13; [2],0.4184 and 0.3308
